This is an account of results in patent EP0481802A1, “Hydroxylated inhibitors of HIV reverse transcriptase” (MERCK & CO. INC., priority 1990, dated 1992).

The experiment addresses T1, recombinant HIV reverse transcriptase (HIV RTR) (Human immunodeficiency virus type 1 group M subtype B, UniProt P04585).
T1 construct: recombinant HIV reverse transcriptase (HIV RTR)
Briefly: Reverse Transcriptase Assay. As to conditions: incorporation of [³H] dGMP into acid-precipitable cDNA, dGTP and poly r(C)·oligo d(G)12-18 at Km, 37°C for 45 minutes; read-out: IC₅₀. The class given is biochemical. The procedure: The assay measures the incorporation of tritiated deoxyguanosine monophosphate by recombinant HIV reverse transcriptase (HIV RTR) (or other RT) into acid-precipitable cDNA at the Km values of dGTP and poly r(C)·oligo d(G)₁₂₋₁₈.
Thirty uL of a reaction mixture containing equal volumes of: 500 mM Tris·HCl (pH 8.2), 300 mM MgCl₂, 1200 mM KCl, 10 mM DTT, 400 µg/mL poly r(c)·oligo d(G) [prepared by dissolving 1.5 mg (25 U) poly r(C)·oligo d(G) in 1.5 ml sterile distilled H₂O and diluting to 400 µg/ml], 0.1 µCi/µl [³H] dGTP, 160 µM dGTP, was added to 10 µl sterile distilled H₂O, 2.5 µl of potential inhibitor and 10 µL of 5 nM purified HIV RTR in tubes. The mixture was incubated at 37°C for 45 minutes.
After incubation is complete, the tubes were cooled in ice for 5 minutes. Ice-cold 13% TCA containing 10 mM NaPPi (200 µl) are added and the mixture incubated on ice for 30 minutes. The precipitated cDNA is removed by filtration using presoaked glass filters [TCA, NaPPi]. The precipitate is then washed with 1N HCl, 10 mM NaPPi.
The filter discs are then counted in a scintillation counter.
Under these conditions [dGTP] and poly r(C)·oligo d(G)₁₂₋₁₈ each are approximately equal to the appropriate Km value. […] Calculated IC₅₀ values for the lead compounds of this invention were approximately 94nM and (more than or equal to) 300 µM for L-697,914 and L-697,913, respectively. […]

The structures appear in SMILES notation.

Take `Cc1[nH]c(=O)c(NCc2nc3ccccc3o2)cc1C(C)O` [L-697,913, 3-[(benzoxazol-2-yl)methylamino]-5-(1-hydroxyethyl)-6-methylpyridin-2(1H)-one]: the IC50 is not below 300 µM.
Next, `CCc1cc(NCc2nc3ccccc3o2)c(=O)[nH]c1CO` [L-697,914, 3-[(benzoxazol-2-yl)methylamino]-5-ethyl-6-hydroxymethylpyridin-2(1H)-one]: approximately 0.094 µM.
